The text below walks through data of PMC10607876, “Phenylacetyl-/Trolox- Amides: Synthesis, Sigma-1, HDAC-6, and Antioxidant Activities” (International Journal of Molecular Sciences, 2023).

Each structure is given as a SMILES string. Values joined by “and” are separate entries in the source; they are usually repeats but may differ in a detail not shown here. Identical values can stand only once.

Assay [1] in a line: Oxygen Radical Activity Capacity (ORAC) assay. Particulars: for antioxidant activities (in words): ORAC; for Slopes: slope of net AUC vs concentration (2.5-50 µM), averaged, n = 3 runs, 60 min; for TEs (Trolox equivalents): slope of sample divided by slope of Trolox, ORAC after 60 min, mean ± SD, n = 3. As for the experimental part:
Compound antioxidant capacities were determined using the Oxygen Radical Activity Capacity (ORAC) Assay Kit (catalog #ab233473, Abcam, Cambridge, MA, USA) according to the manufacturer’s protocol. Briefly, the Trolox standard (0.2 mM, 50:50 v/v, water: acetone) and each test compound (0.2 mM, 50:50 v/v, water: acetone) were tested at final concentrations ranging from 2.5 µM to 50 µM in the assay. Fluorescein (150 μL) probe solution and 25 μL of Trolox or each test compound were mixed in each well of a black 96-well microplate and incubated at 37 °C for 30 min. […] Trolox equivalents (TE) for the test compounds were obtained by directly dividing the slopes of each sample by the slope of the Trolox from its standard curve (Table 4). […] Curiously, unlike the phenolic Trolox derivatives (i.e., 3, 4, 8, 12, and 20), compound 18′s antioxidant activity can be attributed to the -NH-OH moiety.

In a further assay the target is T1, σ-2 (Rattus norvegicus, UniProt Q5U3Y7).
T1 sequence (Q5U3Y7 1-176): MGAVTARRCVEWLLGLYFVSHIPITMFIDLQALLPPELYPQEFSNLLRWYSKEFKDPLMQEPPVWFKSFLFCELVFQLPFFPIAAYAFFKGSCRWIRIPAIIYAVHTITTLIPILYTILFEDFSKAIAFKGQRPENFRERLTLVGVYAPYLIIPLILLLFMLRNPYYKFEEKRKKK
As to the kind of experiment: Sigma-2 competitive radioligand displacement binding (NIMH PDSP). As for the experimental part:
Sigma-1 and 2 affinity experiments (Ki values) were carried out at the National Institute of Mental Health’s Psychoactive Drug Screening Program (NIMH PDSP, UNC Chapel Hill, NC). Assay details (i.e., competitive radioligand displacement conditions, etc.) are available at https://pdsp.unc.edu/pdspweb/content/PDSP%20Protocols%20II%202013-03-28.pdf (accessed on 23 August 2023). Table 2 below indicates the Ki values determined for all compounds.

The target of a further assay is T2, HDAC-6 (Homo sapiens, UniProt Q9UBN7).
T2 sequence (Q9UBN7 1-1215): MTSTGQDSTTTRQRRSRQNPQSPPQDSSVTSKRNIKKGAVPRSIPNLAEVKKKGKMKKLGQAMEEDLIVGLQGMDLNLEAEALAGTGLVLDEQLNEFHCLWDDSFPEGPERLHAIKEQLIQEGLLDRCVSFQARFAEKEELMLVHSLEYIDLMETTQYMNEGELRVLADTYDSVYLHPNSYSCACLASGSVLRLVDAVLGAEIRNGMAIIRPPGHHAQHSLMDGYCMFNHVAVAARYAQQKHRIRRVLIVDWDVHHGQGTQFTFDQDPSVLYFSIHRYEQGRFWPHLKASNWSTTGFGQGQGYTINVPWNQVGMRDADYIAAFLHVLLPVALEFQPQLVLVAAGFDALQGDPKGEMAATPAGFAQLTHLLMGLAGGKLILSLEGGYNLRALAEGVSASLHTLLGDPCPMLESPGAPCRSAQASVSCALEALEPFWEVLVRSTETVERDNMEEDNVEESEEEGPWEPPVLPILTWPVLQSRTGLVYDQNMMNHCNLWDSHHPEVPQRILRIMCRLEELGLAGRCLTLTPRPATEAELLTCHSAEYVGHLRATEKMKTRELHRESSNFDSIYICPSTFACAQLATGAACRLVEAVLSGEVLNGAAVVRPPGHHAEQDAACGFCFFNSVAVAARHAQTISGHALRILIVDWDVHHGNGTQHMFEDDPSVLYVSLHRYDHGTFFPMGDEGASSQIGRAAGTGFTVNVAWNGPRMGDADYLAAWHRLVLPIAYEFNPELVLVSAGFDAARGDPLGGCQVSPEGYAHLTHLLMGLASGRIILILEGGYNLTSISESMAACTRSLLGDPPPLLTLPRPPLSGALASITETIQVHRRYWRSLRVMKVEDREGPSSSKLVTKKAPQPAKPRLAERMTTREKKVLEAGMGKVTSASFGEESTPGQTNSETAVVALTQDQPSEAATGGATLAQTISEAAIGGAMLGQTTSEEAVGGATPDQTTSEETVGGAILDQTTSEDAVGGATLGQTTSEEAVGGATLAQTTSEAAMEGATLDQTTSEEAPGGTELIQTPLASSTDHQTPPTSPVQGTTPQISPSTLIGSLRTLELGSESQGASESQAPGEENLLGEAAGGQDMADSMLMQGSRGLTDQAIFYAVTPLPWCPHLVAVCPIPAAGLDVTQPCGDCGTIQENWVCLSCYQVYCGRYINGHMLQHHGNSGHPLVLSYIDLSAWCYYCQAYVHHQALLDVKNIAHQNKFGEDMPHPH
The experiment in a line: HDAC fluorescence activity assay (Reaction Biology, Howitz conditions). Particulars: HDAC-6 IC50, fluorogenic acetylated lysine substrate, 10-dose IC50 mode, threefold serial dilutions.

Turning to `Cc1c(C)c2c(c(C)c1O)CCC(C)(C(=O)NNC(=O)c1ccc(Cl)cc1)O2` (stereo not shown) [Compound 20, N′-(4-Chlorobenzoyl)-6-hydroxy-2,5,7,8-tetramethylchromane-2-carbohydrazide], in assay [1], the “antioxidant activities (in words)” value is “potent”, the Slopes is reported as 177.86 ± 3.38 and the “TEs (Trolox equivalents)” value is listed as 1.47 ± 0.03 TE.

Turning to `Cc1cc(NC(=O)C2(C)CCc3c(C)c(O)c(C)c(C)c3O2)no1` (stereo not shown) [Compound 13, 6-Hydroxy-2,5,7,8-tetramethyl-N-(5-methylisoxazol-3-yl)chromane-2-carboxamide], the affinity on σ-2 corresponds to a Ki of 6.86 µM.

`Cc1c(C)c2c(c(C)c1O)CCC(C)(C(=O)NCc1ccc(C(=O)NO)cc1)O2` (stereo not shown) [Compound 8, 6-Hydroxy-N-(4-(hydroxycarbamoyl)benzyl)-2,5,7,8-tetramethylchromane-2-carboxamide]: in assay [1], the “antioxidant activities (in words)” value is given as “potent”; the Slopes is 232.42 ± 8.98; the “TEs (Trolox equivalents)” value is 1.92 TE and 1.92 ± 0.07 TE. Further, the IC50 (in general, the midpoint of a concentration-inhibition curve) against HDAC-6 was 0.017 µM and 0.0173 µM. The Ki – broadly, a measure of affinity in units of concentration, obtained from inhibition or displacement – on σ-2 is greater than 10 µM.

For the compound `NS(=O)(=O)c1ccc(CNC(=O)Cc2ccccc2)cc1` [Compound 16, 2-Phenyl-N-(4-sulfamoylbenzyl) acetamide], on σ-2, the Ki was greater than 10 µM.

Consider `Cc1nc(NC(=O)C2(C)CCc3c(C)c(O)c(C)c(C)c3O2)sc1C` (stereo not shown) [Compound 11, N-(4,5-Dimethylthiazol-2-yl)-6-hydroxy-2,5,7,8-tetramethylchromane-2-carboxamide], for which, at σ-2, the Ki was greater than 10 µM.

Consider `O=C(Cc1ccccc1)NCc1ccc(C(=O)NO)cc1` [Compound 18, N-Hydroxy-4-((2-phenylacetamido)methyl)benzamide], for which, in assay [1], the “antioxidant activities (in words)” value is “potent”, the Slopes is 137.45 ± 1.88 and the “TEs (Trolox equivalents)” value is on record as 1.13 ± 0.02 TE. Moreover, on HDAC-6, the IC50 was 0.077 µM and 0.0779 µM.

Compound `COC(=O)c1ccc(CNC(=O)Cc2ccccc2)cc1` [Compound 1, Methyl 4-((2-phenylacetamido)methyl) benzoate] gave a Ki at σ-2 greater than 10 µM.

Turning to `Cc1c(C)c2c(c(C)c1O)CCC(C)(C(=O)O)O2` (stereo not shown) [Trolox, 6-hydroxy-2,5,7,8-tetramethylchroman-2-carboxylic acid], the “TEs (Trolox equivalents)” value in assay [1] is listed as 1.0 TE.

For `Cc1c(C)c2c(c(C)c1O)CCC(C)(C(=O)Nc1ncc[nH]1)O2` (stereo not shown) [Compound 12, 6-Hydroxy-N-(1H-imidazol-2-yl)-2,5,7,8-tetramethylchromane-2-carboxamide], in assay [1], the “antioxidant activities (in words)” value was “potent”, the Slopes is listed as 151.24 ± 0.30 and the “TEs (Trolox equivalents)” value worked out at 1.25 ± 0.002 TE. Also, the Ki on σ-2 is greater than 10 µM.

On to `Cc1c(C)c2c(c(C)c1O)CCC(C)(C(=O)Nc1nc3ccccc3[nH]1)O2` (stereo not shown) [Compound 6, N-(1H-benzo[d]imidazol-2-yl)-6-hydroxy-2,5,7,8-tetramethylchromane-2-carboxamide], for which, on σ-2, the affinity, expressed as Ki, was 7.49 µM.

On to `COC(=O)c1ccc(CNC(=O)C2(C)CCc3c(C)c(O)c(C)c(C)c3O2)cc1` (stereo not shown) [Compound 2, Methyl 4-((6-hydroxy-2,5,7,8-tetramethylchromane-2-carboxamido)methyl)benzoate], for which the Ki at σ-2 is 7.47 µM.

`Cc1c(C)c2c(c(C)c1O)CCC(C)(C(=O)NCc1ccc3c(c1)OCO3)O2` (stereo not shown) [Compound 15, N-(Benzo[d][1,3]dioxol-5-ylmethyl)-6-hydroxy-2,5,7,8-tetramethylchromane-2-carboxamide] registered a Ki at σ-2 of 6.98 µM.

At σ-2, `Cc1c(C)c2c(c(C)c1O)CCC(C)(C(=O)Nc1cnccn1)O2` (stereo not shown) [Compound 10, 6-Hydroxy-2,5,7,8-tetramethyl-N-(pyrazin-2-yl) chromane-2-carboxamide] showed a Ki of 5.59 µM.

As to `NNC(=O)c1ccc(CNC(=O)Cc2ccccc2)cc1` [Compound 5, N-(4-(Hydrazinecarbonyl)benzyl)-2-phenylacetamide], the Ki at σ-2 is greater than 10 µM.

At σ-2, `Cc1c(C)c2c(c(C)c1O)CCC(C)(C(=O)Nc1cc3ccccc3cn1)O2` (stereo not shown) [Compound 7, 6-Hydroxy-N-(isoquinolin-3-yl)-2,5,7,8-tetramethylchromane-2-carboxamide] displayed a Ki of 1.5 µM.

Turning to `Cc1c(C)c2c(c(C)c1O)CCC(C)(C(=O)NCc1ccc(S(N)(=O)=O)cc1)O2` (stereo not shown) [Compound 4, 6-Hydroxy-2,5,7,8-tetramethyl-N-(4-sulfamoylbenzyl) chromane-2-carboxamide], in assay [1], the “antioxidant activities (in words)” value is on record as “potent”, the Slopes amounted to 155.07 ± 2.39 and the “TEs (Trolox equivalents)” value is on record as 1.28 ± 0.02 TE. At σ-2, this compound gave a Ki greater than 10 µM.

For `Cc1c(C)c2c(c(C)c1O)CCC(C)(C(=O)NCc1ccc(C(=O)NN)cc1)O2` (stereo not shown) [Compound 9, N-(4-(Hydrazinecarbonyl)benzyl)-6-hydroxy-2,5,7,8-tetramethylchromane-2-carboxamide], the Ki at σ-2 was greater than 10 µM.

In turn, `Cc1c(C)c2c(c(C)c1O)CCC(C)(C(=O)N1CCN(c3ncccn3)CC1)O2` (stereo not shown) [Compound 14, (6-Hydroxy-2,5,7,8-tetramethylchroman-2-yl)(4-(pyrimidin-2-yl)piperazin-1-yl)methanone] came in with a Ki on σ-2 of 2.49 µM.

As to `Cc1c(C)c2c(c(C)c1O)CCC(C)(C(=O)Nc1nc3ccccc3o1)O2` (stereo not shown) [Compound 3, N-(Benzo[d]oxazol-2-yl)-6-hydroxy-2,5,7,8-tetramethylchromane-2-carboxamide], in assay [1], the “antioxidant activities (in words)” value was “potent”, the Slopes turned out to be 205.61 ± 4.38 and the “TEs (Trolox equivalents)” value was 1.70 ± 0.04 TE. This compound also came in with a Ki at σ-2 greater than 10 µM.
